Like-named read-outs stand apart in the source and are kept apart here.
Legend:
[1] = test system: ceramide-activated protein kinase; details: nuclei-free supernates, ref. [40], cited from earlier work
[2] = test system: ceramide-activated protein kinase; experiment: Ceramide-activated protein kinase activity (EGFR peptide) in EL-4 cell fractions; details: baseline, EL-4 membranes
Description: Effect of IL-1β on ceramide-activated protein kinase activity. […] Homogenates were centrifuged at 500×g for 5 minutes to remove nuclei and at 200,000×g for 30 minutes to prepare microsomal membranes. Membranes were resuspended into homogenizing buffer (2.2 μg membrane protein μl^-1). For assay of kinase activity, the reaction mixture contained 20 μl of microsomal membrane, 40 μl EGFR peptide (4 mg ml^-1 in 25 mM Hepes, pH 7.4) and 100 μl buffer (50 mM HEPES, pH 7.4, 20 mM MgCl2). Phosphorylation was initiated at 22° C. by addition of 40 μl [γ-^32 P] ATP (100 μM final concentration) and terminated at the indicated times by addition of 40 μl of 0.5 M ATP in 90% formic acid. Phosphorylated peptide was eluted from a C18 Sep pak cartridge (Millipore), lyophilized, and resolved by C18 reverse phase HPLC using a linear gradient of acetonitrile. […] All assays were performed under conditions determined as linear for time and enzyme concentration. Enzyme activity was determined from the percent conversion of substrate to product and the specific radioactivity of [γ-^32 P] ATP. […] Values (mean±range) represent duplicate determinations from two experiments.
Activity was measured by the transfer of ^32 P from the γ-position of ATP to EGFR peptide (AA 663-681 of the EGFR). The effect of IL-1β on kinase activity was determined using microsomal membranes derived from cells stimulated with IL-1β.

[3] = test system: ceramide-activated protein kinase; experiment: EGFR peptide phosphorylation by kinase in A-431 microsomal membranes / postnuclear supernatant; type: biochemical, human (A-431 epidermoid carcinoma cells)
Description: Kinetics of ^32 Pi incorporation into the EGFR peptide. […] The reaction was initiated by addition of 50 μl of [γ-^32 P]ATP (150 μM final concentration) and terminated by addition of 50 μl of 0.5 M ATP in 90% (vol/vol) formic acid. Samples were spotted on phosphocellulose paper, washed with 1 M acetic acid/4 mM pyrophosphate, and ^32 P incorporation was measured by liquid-scintillation counting, as described. A boiled protein blank was subtracted from each data value. The data (means) represent duplicate samples from one of two similar experiments. […]
Kinetics of ceramide-induced ^32 Pi incorporation into EGFR peptide. Peptide phosphorylation was done as described in FIG. 2 in the absence (.smallcircle.) or presence (.circle-solid.) of 0.5 μM C8 -ceramide. Phosphorylated peptide was resolved by HPLC. Values (means) represent data from three experiments.
Concentration-dependence of ceramide-induced ^32 Pi incorporation into EGFR peptide. Peptide phosphorylation reactions were done as described for FIG. 2, for 2 minutes, using various concentrations of ceramide (0.001-3 μM). Phosphorylated peptide was resolved by HPLC. Values (means) represent data from three experiments. […]
Phosphorylation was initiated at 22° C. by addition of 50 μl of [γ-^32 P] ATP (150 μM final concentration; 4000 dpm/pmol). For studies with lipid activators, ceramide and other lipids were dried under N2 and resuspended in the kinase assay buffer by bath sonication for 2 minutes at 37° C.
Phosphorylated peptide was quantified by two separate methods. For initial studies, samples were spotted on phosphocellulose paper, washed in 1 M acetic acid/4 mM pyrophosphate and subjected to liquid scintillation counting, according to methods well known to those skilled in the art. Values obtained from a boiled blank or a sample lacking peptide were subtracted from each determination. Alternatively, HPLC was done according to methods well known to those skilled in the art. For these studies, samples were first applied to a C18 Sep-Pak cartridge and eluted with 99.9% acetonitrile/0.1% trifluoroacetic acid. The eluates were lyophilized, resuspended in 6 M guanidine hydrochloride/200 mM Tris, pH 8.5 and applied to a C18 reverse-phase column (Dynamax, 4.6 mm i.d., Rainin, Woburn, Mass.). The peptide was eluted with a linear gradient (1% per minute) of acetonitrile at a flow rate of 1 ml/minute and was detected by measuring the Cerenkov radiation associated with 1-ml fractions.

CAP kinase = experiment: Phosphorylation of Raf-1 peptides by CAP kinase; type: biochemical, bovine (brain)
[4] = test system: ceramide-activated protein kinase; experiment: CAP kinase activation in HL-60 cells (renaturation and autophosphorylation); type: cell-based, human (HL-60 cells)
Description: Stimulation of ceramide-activated protein (CAP) kinase by lipid A. On the day of an experiment, HL-60 cells were resuspended (1×10^6 cells ml^-1) into serum-free RPMI 1640 containing 5 μg ml^-1 insulin and transferrin. After 2 h, cells were stimulated with lipid A (Escherichia Coli) or diluent (DMSO, <0.01%). Ceramide-activated protein kinase contained within microsomal membranes was detected by renaturation and autophosphorylation. Briefly, membrane proteins (200 μg per lane) were separated by SDS-PAGE (10%), and the gel was washed with two changes of buffer (50 mM Tris, pH 7.4, 5 mM 2-mercaptoethanol) containing 20% 2-propanol at room temperature for 1 h, and once in buffer without 2-propanol for 1 h. Denaturation was accomplished by incubation of the gel in two changes of 6M guanidinium HCl in wash buffer for 1 h each. Renaturation was accomplished by incubation of the gel overnight at 4° C. in wash buffer containing 0.04% Tween-20. The gel was then equilibrated for 10 min at room temperature in kinase reaction mixture (25 mM HEPES, pH 7.4, 10 mM MgCl2, 0.5 mM EGTA and 5 mM NaF) and [γ-^32 p] ATP (50 μM final concentration; 1000 dpm pmol^-1) was added. Autophosphorylation was terminated by removal of the reaction mixture. The gel was washed with 6 changes of buffer (5% trichloroacetic acid, 1% sodium pyrophosphate) for 2 h and subjected to autoradiography. Top panel--Time course of lipid A activation. Bottom panel--Dose response at 5 minutes of lipid A stimulation. Autoradiograms represent one of three similar studies in both panels A and B.
On the day of an experiment, cells were resuspended (1×10^6 cells ml^-1) into serum-free RPMI 1640 containing 5 μg ml^-1 insulin and transferrin. After 2 h, cells were stimulated with lipid A or diluent (DMSO, <0.01% ). […] The postnuclear supernate was centrifuged at 200,000×g for 30 min and microsomal membranes were resuspended ([…]) into homogenizing buffer. Ceramide-activated protein kinase was detected by renaturation and autophosphorylation. Briefly, membrane proteins (200 μg per lane) were separated by SDS-PAGE (10%), and the gel was washed with two changes of buffer (50 mM Tris, pH 7.4, 5 mM 2-mercaptoethanol) containing 20% 2-propanol at room temperature for 1 h, and once in buffer without 2-propanol for 1 h. Denaturation was accomplished by incubation of the gel in two changes of 6M guanidinium HCl in wash buffer for 1 h each. Renaturation was accomplished by incubation of the gel overnight at 4° C. in wash buffer containing 0.04% Tween-20. The gel was then equilibrated for 10 min at room temperature in kinase reaction mixture (25 mM HEPES, pH 7.4, 10 mM MgCl2, 0.5 mM EGTA and 5 mM NaF) and [γ-^32 P] ATP (50 μM final concentration; 1000 dpm pmol^-1. Autophosphorylation was terminated by removal of the reaction mixture. The gel was washed with 6 changes of buffer (5% trichloracetic acid, 1% sodium pyrophosphate) for 2 h and subjected to autoradiography.
For studies involving activation of ceramide-activated protein kinase by LPS, HL-60 cells (13×10^6 ml^-1) were handled as above, and LPS (Salmonella typhosa, 50 ng ml^-1), recombinant LBP (1.7 μg ml^-1) or both LPS and LBP were added for the times indicated. Isolation of microsomal membranes and autophosphorylation of ceramide-activated protein kinase were performed as above.

[5] = test system: ceramide-activated protein kinase; experiment: Ceramide-activated protein kinase activity toward MBP after HL-60 cell treatment; type: cell-based, human (HL-60 cells)
Description: Membrane proteins (200 μg) from treated and untreated cells were subjected to SDS-PAGE and kinase activity was renatured as above. Autophosphorylation was allowed to proceed for 10 min and the gel was washed for 20 min with four changes of 50 mM HEPES buffer, pH 7.4. Gel slices were then excised from regions corresponding to 100-110 KDa, crushed, and incubated for 1 h with 10μ MBP (5 mg ml^-1) and 40 μl kinase reaction mixture in the presence of [γ-^32 P]ATP (50 μM final concentration). Reactions were terminated by addition of 10 μl Laemmli buffer, boiling for 3 min, and centrifugation of gel particles. The supernates were subjected to electrophoresis and autoradiography.
Since prior studies correlated enhanced autophosphorylation of ceramide-activated protein kinase with increased kinase activity toward exogenous substrate, the effect of kinase activity toward MBP was examined after treatment of HL-60 cells with lipid A. For these studies, gel slices corresponding to ceramide-activated protein kinase were subjected to autophosphorylation for 10 min in buffer containing ATP (50 μM final concentration), and then were washed and incubated with MBP in a kinase reaction mixture containing [γ-^32 P]ATP [119]. After termination of reactions, samples were subjected electrophoresis and visualized by autoradiography. […] Enhancement of MBP phosphorylation was detectable at 0.5 min of lipid A treatment and maximal at 15 min.

NH2 -Glu-Leu-Val-Glu-Pro-Leu-Thr-Pro-Ser-Gly-Glu-Ala-Pro-Asn-Gln-Ala-Leu-Leu-Arg-COOH (H-ELVEPLTPSGEAPNQALLR-OH) [EGFR peptide]
Km (peptide) [1]: 0.25 mg/mL
Km (EGFR peptide) [2]: 0.15 mg/mL
maximum reaction velocity [2]: 12.5 pmol min^-1 mg^-1 of microsomal membrane protein
apparent Km (EGFR peptide) ([3]; 5 minutes, Lineweaver-Burke): 0.25 mg/mL
apparent Vmax ([3]; EGFR peptide phosphorylation): 100-200 pmol.min^-1.mg of protein^-1

RQRSTSTPNVHMVSAALPVDSRMIE [AALP (SEQ ID NO: 6)]
phosphorylation of Raf-1 peptide by CAP kinase (CAP kinase): failed to phosphorylate

Nc1ncnc2c1ncn2[C@@H]1O[C@H](COP(=O)(O)OP(=O)(O)OP(=O)(O)O)[C@@H](O)[C@H]1O [ATP, adenosine triphosphate]
Km ([1]; read-out: Km (ATP)): 15 µM
Km ([2]; read-out: Km (ATP)): 70 µM
Km ([3]; 5 minutes, Lineweaver-Burke, read-out: apparent Km (ATP)): 15 µM

lipid A
maximal activation of ceramide-activated protein kinase ([4]; 500 nM lipid A, of control): 5 fold
earliest detection of increased autophosphorylation ([4]; early kinetics studies): 30 s
concentration of maximal effect ([4]; lipid A): 500 nM
lowest effective concentration ([4]; lipid A): 10 nM
duration of enhanced autophosphorylation ([4]; lipid A 5 μM): 60 min
enhancement of autophosphorylation detected at ([4]; lipid A 5 μM): 5 min
onset of enhanced MBP phosphorylation ([5]; lipid A): 0.5 min
time of maximal MBP phosphorylation ([5]; lipid A): 15 min
enhancement of MBP phosphorylation ([5]; lipid A-treated HL-60 cells): 5 fold

Reference: US6040149A, “Assay for identifying agents which act on the ceramide-activated protein kinase, kinase suppressor of ras, and methods of using said agents” (priority 1997, dated 2000)
